Data set [1] relates to c-Fos nuclear translocation in human T lymphocytes. The data set is described as follows: c-Fos nuclear translocation assay (Western blot). The note with it: pretreated 1 hour, PMA plus ionomycin 120 minutes. It counts as cell-based. The procedure:
For c-Jun and c-Fos nuclear translocation assays, the human T lymphocytes (6×10^6/well) were pretreated with DMY for 1 hour, and then stimulated with 20 ng/ml PMA plus […] ionomycin for 120 minutes. After the cells were harvested and washed with PBS twice, the nuclear proteins of cells were then prepared using NucBuster™ Reagents. Afterwards, the washed cells were re-suspended using 60 μl NucBuster™ Reagent 1 per 30 μl of packed cells and processed twice by vortexing for 15 seconds, and followed by the incubation on ice for 5 minutes and second vortexing for 15 seconds, and finally centrifuged at 16000 g for 5 minutes. The supernatants containing cytoplasmic proteins were discarded; the cell pellets were re-suspended in 45 μl of NucBuster Extraction Reagent 2. The same vortexing, icing, and repeated vortexing steps were repeated once to prepare the nuclear proteins of the cells.
Protein concentrations were determined by using Bio-Rad Protein assay. Equal amounts of nuclear proteins or whole-cell lysates were analyzed by 10% SDS-PAGE. After electrophoresis, the proteins were electro-transferred to the nitrocellulose membranes. […]

In data set [2] the target is T1, His-tagged recombinant human IKK-β (Homo sapiens, UniProt O14920).
T1 construct: His; purchased Calbiochem
T1 sequence (O14920 1-756): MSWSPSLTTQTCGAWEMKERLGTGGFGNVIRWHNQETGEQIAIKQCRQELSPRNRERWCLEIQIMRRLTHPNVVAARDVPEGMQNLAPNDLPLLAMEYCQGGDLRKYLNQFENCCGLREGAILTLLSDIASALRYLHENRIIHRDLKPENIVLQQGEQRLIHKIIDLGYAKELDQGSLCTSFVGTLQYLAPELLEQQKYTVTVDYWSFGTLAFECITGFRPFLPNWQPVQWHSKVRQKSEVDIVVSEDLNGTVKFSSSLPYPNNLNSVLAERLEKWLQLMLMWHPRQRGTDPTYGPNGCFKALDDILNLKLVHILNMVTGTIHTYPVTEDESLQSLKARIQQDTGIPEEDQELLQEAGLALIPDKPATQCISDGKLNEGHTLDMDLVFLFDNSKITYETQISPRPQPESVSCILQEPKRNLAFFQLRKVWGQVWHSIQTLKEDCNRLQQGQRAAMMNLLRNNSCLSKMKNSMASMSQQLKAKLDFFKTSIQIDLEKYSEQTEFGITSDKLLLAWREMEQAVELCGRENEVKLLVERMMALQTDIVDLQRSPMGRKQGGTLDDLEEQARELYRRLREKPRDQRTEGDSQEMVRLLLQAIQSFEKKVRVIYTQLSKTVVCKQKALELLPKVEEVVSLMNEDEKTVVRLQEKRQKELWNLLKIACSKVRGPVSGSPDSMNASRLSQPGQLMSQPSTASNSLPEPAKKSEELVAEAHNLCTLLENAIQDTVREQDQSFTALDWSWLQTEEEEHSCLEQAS
In words: IKK activity assay (K-LISA IKK-β-Inhibitor Screening Kit). The note with it: DMY at 50 μM and 100 μM; FIG. 4A. Type of data set: biochemical. As to the method: The direct inhibitory effect of DMY on IKK activity was examined by using K-LISA™ IKK-β-Inhibitor Screening Kit (Calbiochem). Both the glutathione-S-transferase (GST)-IκB-α substrate and His-tagged recombinant human IKK-β were incubated with or without DMY in the wells of a glutathione-coated 96-well plate. The reaction was terminated with the addition of kinase stop solution after being incubated at 30° C. for 30 minutes. Then, anti-Phospho IκB-α (Ser32/Ser36) antibody was used to determine the phosphorylated GST-IκB-α substrate, and the horse radish peroxidase (HRP)-conjugated color was developed by 3,3′,5,5′-tetramethylbenzidine (TMB) substrate. ELISA stop solution was used to stop the color development and the absorbance was measured at 450 nm the wavelength at which was directly related to the level of IKK activity.

For a further data set, the system named is ICR mice. The following applies: mouse, in vivo. As to the method:
ICR (Imprinting Control Region) mice (both male and female) were purchased from the Laboratory Animal Services Center, the Chinese University of Hong Kong, Hong Kong. At the beginning of the study, one mouse was given orally with DMY at a dose of 2,000 mg/kg of mouse after fasting for 12 hours. The mouse had free access to water and after 2 hours, it was supplied with chow diet. Signs of toxicosis, onset of signs, and time to death of the mouse were monitored and recorded. Results of the initial exposure were used to select the subsequent dose of DMY, using the up-and-down method to estimate the lethal dose. […] If all the mice stayed alive, a higher dose of DMY was given to another three mice. All the mice were monitored continuously for two hours, every half hour for the next 5 hours, and at least every 10 hours until the 72nd hour of the study. Mice that died were immediately undergone autopsy. Mice remaining alive for 14 days upon study were sacrificed with an overdose pentobarbital.

Data set [3] concerns c-Fos nuclear localization in HeLa cells. In words: Nuclear localization of c-Fos (immunofluorescence). It counts as cell-based. The following applies: DMY 2 hours then PMA plus ionomycin 2 hours, FIGS. 7 and 8. The procedure: HeLa cells (1×10^5) were seeded on the 6-well plates with cover slips and cultured overnight. The cells were treated with DMY for 2 hours at 37° C and then stimulated with or without 20 ng/ml PMA plus 1 μM ionomycin for another 2 hours. After stimulation, the cells were fixed with 4% paraformaldehyde for 15 minutes at room temperature and permeabilized by 0.1% Triton X-100 and then stained with phalloidin (Invitrogen) for 3 minutes. The cells were incubated with c-Fos antibody for 2 hour after being stained with phalloidin, and the cells were then incubated with FITC-linked secondary antibody for 1 hour after being washed with PBS for 3 times. The slides were dried in air and mounted onto the glass slides.

Consider one compound from patent publication US20120053235A1, “Dihydromyricetin as an IKK-beta inhibitor used for treatment of arthritis, cancer and autoimmune conditions, and other diseases or disorders” (HONG KONG BAPTIST UNIVERSITY, priority 2010, published 2012).

On to `O=C1c2c(O)cc(O)cc2O[C@H](c2cc(O)c(O)c(O)c2)[C@H]1O` [DMY, dihydromyricetin], for which, in data set [1], the “nuclear translocation of c-Fos” value is listed as “suppress nuclear translocation”. Besides, in data set [2], the “activity of IKK-β” value is given as “significantly inhibited the activity of IKK-β”. In addition, the “acute oral LD50” value in the data set on ICR mice was “greater than 5,000 mg/kg body weight”. In data set [3], the c-Fos nuclear localization entry is “suppress c-Fos nuclear localization”.
